How the values were obtained:
hAGT = target: T1, hAGT (Homo sapiens, UniProt P16455); conditions: cited from earlier work
T1 sequence (P16455 1-207): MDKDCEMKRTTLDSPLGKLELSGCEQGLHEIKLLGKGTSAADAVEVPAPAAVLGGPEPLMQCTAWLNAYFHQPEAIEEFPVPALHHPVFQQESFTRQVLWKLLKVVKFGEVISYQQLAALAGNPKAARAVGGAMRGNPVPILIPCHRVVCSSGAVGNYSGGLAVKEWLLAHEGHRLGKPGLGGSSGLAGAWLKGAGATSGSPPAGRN

[1] = target: T2, endogenous hAGT in human cells (HEK 293) (Homo sapiens, UniProt P16455); assay: Fluorescence labelling of endogenous hAGT in HEK 293 cells, confocal microscopy; type: cell-based; conditions: HEK 293 cells preincubated overnight with 1 μM O6-benzylguanine before BG-AcFc
T2 construct: endogenous hAGT in human cells (HEK 293); endogenous in cells; host or cells: HEK 293
T2 sequence (P16455 1-207): T1 sequence (P16455 1-207)
Text: (C) is an overlay of the images obtained from fluorescence and light microscopy.
Images were then taken with a confocal fluorescence microscope (Ext. 492 nm; Em. 510 nm). […] This should inactivate the endogenous hAGT and therefore prevent the accumulation of the fluorescence in the nucleus. […] The substrate's emission wavelength is 519 nm (excitation at 237, 323 and 490 nm respectively).

Which “second order rate constant of reaction with hAGT” value (hAGT) does the source give for Nc1nc(OCc2ccccc2)c2nc[nH]c2n1 [O^6-benzylguanine] here?
The value was “approximately 10^3 sec^−1 M^−1”.

And the “accumulation of BG-AcFc fluorescence in the nucleus after preincubation” value [1]?
Its value is “no accumulation of fluorescence in the nucleus was observed”.

— US8367361B2, “Methods using O6-alkylguanine-DNA alkytransferase” (Ecole Polytechnique Federale de Lausanne, priority 2001, dated 2013)
